Reference: patent US20250325687A1, “CONJUGATE COMPRISING TOLL-LIKE RECEPTOR AGONIST” (MABSOFT THERAPEUTICS (SHANGHAI) CO., LTD., priority 2022, published 2025)

Legend:
[1] = biological target: T1, hTLR7 (human Toll-like receptor 7) (Homo sapiens, UniProt Q9NYK1); test: hTLR7 cell assay (HEK-Blue hTLR7 reporter cells); type: cell-based; conditions: 24 hours, OD 650 nm
T1 construct: host or cells: HEK-Blue hTLR7 (HEK293-derived reporter cells)
T1 sequence (Q9NYK1 27-1049): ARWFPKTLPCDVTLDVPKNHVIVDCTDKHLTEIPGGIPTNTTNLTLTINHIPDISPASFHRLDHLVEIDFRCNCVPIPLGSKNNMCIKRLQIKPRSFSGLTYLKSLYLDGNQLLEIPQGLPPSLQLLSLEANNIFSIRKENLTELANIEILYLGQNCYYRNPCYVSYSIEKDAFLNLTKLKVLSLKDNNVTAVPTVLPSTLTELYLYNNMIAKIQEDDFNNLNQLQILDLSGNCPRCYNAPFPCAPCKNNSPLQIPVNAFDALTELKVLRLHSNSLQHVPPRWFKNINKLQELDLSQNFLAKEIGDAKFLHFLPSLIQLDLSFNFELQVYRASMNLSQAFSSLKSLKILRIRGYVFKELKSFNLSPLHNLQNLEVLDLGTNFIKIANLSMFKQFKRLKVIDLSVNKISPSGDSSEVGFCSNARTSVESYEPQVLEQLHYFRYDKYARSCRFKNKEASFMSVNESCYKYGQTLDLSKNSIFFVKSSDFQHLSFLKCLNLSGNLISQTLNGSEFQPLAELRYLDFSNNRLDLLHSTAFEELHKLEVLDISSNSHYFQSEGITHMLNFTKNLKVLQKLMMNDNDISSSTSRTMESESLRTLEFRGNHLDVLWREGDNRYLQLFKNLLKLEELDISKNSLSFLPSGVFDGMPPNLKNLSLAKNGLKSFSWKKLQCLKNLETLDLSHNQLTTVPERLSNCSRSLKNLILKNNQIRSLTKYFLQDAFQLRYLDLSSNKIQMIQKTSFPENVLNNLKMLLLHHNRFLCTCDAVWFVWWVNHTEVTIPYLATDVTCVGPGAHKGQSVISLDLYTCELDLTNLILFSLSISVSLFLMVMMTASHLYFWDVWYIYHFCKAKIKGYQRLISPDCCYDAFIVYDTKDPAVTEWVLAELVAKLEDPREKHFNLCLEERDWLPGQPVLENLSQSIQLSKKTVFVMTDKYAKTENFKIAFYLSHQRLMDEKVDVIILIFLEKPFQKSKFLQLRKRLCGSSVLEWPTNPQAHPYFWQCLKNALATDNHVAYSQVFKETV
Experimental: (§1) The payload compounds of Formula (II′) were assayed to evaluate their agonistic activity on hTLR7 (human Toll-like receptor 7) and hTLR8 (human Toll-like receptor 8). Reporter cells lines (HEK-Blue hTLR7 and HEK-Blue hTLR8) were obtained from InvivoGen. Cells were cryopreserved in liquid nitrogen per supplier's instruction. Upon test, the cells were thawed, passaged and cultured in the growth media of DMEM supplemented with 10% fetal bovine serum, 1×NEAA, 1 mM Pyruvate, 2 mM glutamine, […] in the presence of the following antibiotics, as shown as Table 1. Test compounds (at desired concentrations diluted) were added to the 96-well assay plate, 0.5 μL per well. Reporter cells were harvested from the tissue culture flasks by incubation in PBS at 37° C. for two minutes after the media in the flask is removed and cells rinsed with PBS. Cells were counted and diluted in the HEK-Blue Detection media at 50000 cells/mL and incubated for 24 hours at 37° C., in a 5% CO2 humidified incubator. Then 20 μL of cell supernatant were added to the assay plate containing the 180 µL of QUANTI-Blue, incubated for 1 hour at 37° C. Optical density at 650 nm was analyzed using an Envision (Perkin Elmer) plate reader.

[2] = biological target: T2, hTLR8 (human Toll-like receptor 8) (Homo sapiens, UniProt Q9NR97); test: hTLR8 cell assay (HEK-Blue hTLR8 reporter cells); type: cell-based; conditions: 24 hours, OD 650 nm
T2 construct: host or cells: HEK-Blue hTLR8 (HEK293-derived reporter cells)
T2 sequence (Q9NR97 27-1041): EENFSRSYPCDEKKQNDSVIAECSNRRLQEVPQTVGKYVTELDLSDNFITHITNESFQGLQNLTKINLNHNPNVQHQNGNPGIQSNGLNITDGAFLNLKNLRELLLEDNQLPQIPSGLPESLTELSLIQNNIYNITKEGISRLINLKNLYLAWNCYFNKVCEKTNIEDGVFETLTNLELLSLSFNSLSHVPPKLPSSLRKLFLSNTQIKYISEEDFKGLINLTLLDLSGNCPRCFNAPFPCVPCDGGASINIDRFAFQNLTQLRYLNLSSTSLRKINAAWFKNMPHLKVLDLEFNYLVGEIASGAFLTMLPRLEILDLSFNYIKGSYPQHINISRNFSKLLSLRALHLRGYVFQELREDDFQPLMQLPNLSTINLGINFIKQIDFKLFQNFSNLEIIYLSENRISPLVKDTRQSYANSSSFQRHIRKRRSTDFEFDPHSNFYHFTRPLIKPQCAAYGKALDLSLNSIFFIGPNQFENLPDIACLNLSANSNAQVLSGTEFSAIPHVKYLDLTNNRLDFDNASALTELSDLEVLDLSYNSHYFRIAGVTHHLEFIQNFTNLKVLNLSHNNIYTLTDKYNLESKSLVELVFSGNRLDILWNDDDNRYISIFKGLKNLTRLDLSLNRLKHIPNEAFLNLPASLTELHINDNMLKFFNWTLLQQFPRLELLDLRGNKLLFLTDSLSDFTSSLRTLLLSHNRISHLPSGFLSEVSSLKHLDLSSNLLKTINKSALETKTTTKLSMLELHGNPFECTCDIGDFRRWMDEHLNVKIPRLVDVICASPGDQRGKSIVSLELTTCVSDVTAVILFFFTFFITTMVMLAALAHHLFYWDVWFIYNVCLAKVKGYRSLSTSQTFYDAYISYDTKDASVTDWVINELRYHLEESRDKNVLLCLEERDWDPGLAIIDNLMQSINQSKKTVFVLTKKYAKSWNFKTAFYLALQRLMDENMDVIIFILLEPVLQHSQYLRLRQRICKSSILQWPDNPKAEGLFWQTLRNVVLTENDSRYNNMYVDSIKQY
Experimental: as §1

Compound | EC50 [1] | EC50 [2]
CCOCc1nc2c(N)nc3cc(Cc4ccc(CCN)cc4)ccc3c2n1CC(C)(C)OCCNC(=O)C(C)C [Compound 22, N-(2-((1-(4-amino-7-(4-(2-aminoethyl)benzyl)-2-(ethoxymethyl)-1H-imidazo[4,5-c]quinolin-1-yl)-2-methylpropan-2-yl)oxy)ethyl)isobutyramide] | 1 to 10 µM | > 20 µM
CCCC(C)c1nc2c(N)nc3cc(Cc4ccc(CCCN)cc4)ccc3c2n1CC(C)(C)O (stereo not drawn) [Compound 11, 1-(4-amino-7-(4-(3-aminopropyl)benzyl)-2-(pentan-2-yl)-1H-imidazo[4,5-c]quinolin-1-yl)-2-methylpropan-2-ol] | 1 to 10 µM | < 5 µM
CCC[C@H](C)c1nc2c(N)nc3cc(Cc4ccccc4)ccc3c2n1CC(C)(C)OCCN [Compound 29, (S)-1-(2-(2-aminoethoxy)-2-methylpropyl)-7-benzyl-2-(pentan-2-yl)-1H-imidazo[4,5-c]quinolin-4-amine] | > 10 µM | > 20 µM
CCOCc1nc2c(N)nc3cc(Cc4ccccc4)ccc3c2n1CC(C)(C)OCCCN [Compound 33] | 1 to 10 µM | 5 to 20 µM
CCCC(C)c1nc2c(N)nc3cc(Cc4ccccc4)ccc3c2n1CC(C)(C)OCCN (racemic) [Compound 28, 1-(2-(2-aminoethoxy)-2-methylpropyl)-7-benzyl-2-(pentan-2-yl)-1H-imidazo[4,5-c]quinolin-4-amine] | > 10 µM | < 5 µM
CCOCc1nc2c(N)nc3cc(Cc4ccc(CN)cc4)ccc3c2n1CC(C)(C)O [Compound 1, 1-(4-amino-7-(4-(aminomethyl)benzyl)-2-(ethoxymethyl)-1H-imidazo[4,5-c]quinolin-1-yl)-2-methylpropan-2-ol] | > 10 µM | > 20 µM
CCCC(C)c1nc2c(N)nc3cc(Cc4ccc(CCN)cc4)ccc3c2n1CC(C)(C)O (stereo not drawn) [Compound 8, 1-(4-amino-7-(4-(2-aminoethyl)benzyl)-2-(pentan-2-yl)-1H-imidazo[4,5-c]quinolin-1-yl)-2-methylpropan-2-ol] | 1 to 10 µM | < 5 µM
CCC[C@H](C)c1nc2c(N)nc3cc(Cc4ccc(CCN)cc4)ccc3c2n1CC(C)(C)O [Compound 10, (S)-1-(4-amino-7-(4-(2-aminoethyl)benzyl)-2-(pentan-2-yl)-1H-imidazo[4,5-c]quinolin-1-yl)-2-methylpropan-2-ol] | > 10 µM | > 20 µM
CCCC(C)c1nc2c(N)nc3cc(Cc4cccc(CCN)c4)ccc3c2n1CC(C)(C)O (stereo not drawn) [Compound 13, 1-(4-amino-7-(3-(2-aminoethyl)benzyl)-2-(pentan-2-yl)-1H-imidazo[4,5-c]quinolin-1-yl)-2-methylpropan-2-ol] | 1 to 10 µM | < 5 µM
CCOCc1nc2c(N)nc3cc(Cc4ccc(CC(N)=O)cc4)ccc3c2n1CC(C)(C)OCCN [Compound 27, 2-[4-({4-amino-1-[2-(2-aminoethoxy)-2-methylpropyl]-2-(ethoxymethyl)imidazo[4,5-c]quinolin-7-yl}methyl)phenyl]acetamide] | 1 to 10 µM | > 20 µM
CCCC(C)c1nc2c(N)nc3cc(Cc4cccc(CN)c4)ccc3c2n1CC(C)(C)O (stereo not drawn) [Compound 12, 1-(4-amino-7-(3-(aminomethyl)benzyl)-2-(pentan-2-yl)-1H-imidazo[4,5-c]quinolin-1-yl)-2-methylpropan-2-ol] | 1 to 10 µM | < 5 µM
CCOCc1nc2c(N)nc3cc(Cc4ccc(NC(=O)NCCN)cc4)ccc3c2n1CC(C)(C)O [Compound 7, 1-(4-((4-amino-2-(ethoxymethyl)-1-(2-hydroxy-2-methylpropyl)-1H-imidazo[4,5-c]quinolin-7-yl)methyl)phenyl)-3-(2-aminoethyl)urea] | > 10 µM | 5 to 20 µM

Now from value to molecule:

EC50 [1] | EC50 [2] | Compound
> 10 µM | 5 to 20 µM | CCOCc1nc2c(N)nc3cc(Cc4ccc(CCN)cc4)ccc3c2n1C[C@@H]1[C@@H](CO)C1(F)F [Compound 49, ((1S,3S)-3-((4-amino-7-(4-(2-aminoethyl)benzyl)-2-(ethoxymethyl)-1H-imidazo[4,5-c]quinolin-1-yl)methyl)-2,2-difluorocyclopropyl)methanol]
1 to 10 µM | < 5 µM | CCCC(C)c1nc2c(N)nc3cc(Cc4ccccc4)ccc3c2n1Cc1ccc(CN)cc1 (stereo not drawn) [Compound 42, 1-(4-(aminomethyl)benzyl)-7-benzyl-2-(pentan-2-yl)-1H-imidazo[4,5-c]quinolin-4-amine]
> 10 µM | > 20 µM | CCOCc1nc2c(N)nc3cc(Cc4ccccc4)ccc3c2n1CC(C)(C)N [Compound 38, 1-(2-amino-2-methylpropyl)-7-benzyl-2-(ethoxymethyl)-1H-imidazo[4,5-c]quinolin-4-amine]
1 to 10 µM | 5 to 20 µM | CCCC(C)c1nc2c(N)nc3cc(Cc4ccc(CCN)cc4)ccc3c2n1Cc1ccccc1 (stereo not drawn) [Compound 41, 7-(4-(2-aminoethyl)benzyl)-1-benzyl-2-(pentan-2-yl)-1H-imidazo[4,5-c]quinolin-4-amine]
< 1 µM | 5 to 20 µM | CCOCc1nc2c(N)nc3cc(Cc4ccccc4)ccc3c2n1Cc1ccc(CN)cc1 [Compound 43]
1 to 10 µM | > 20 µM | CCOCc1nc2c(N)nc3cc(Cc4ccccc4)ccc3c2n1CC1CC(CN)C1 (stereo not drawn) [Compound 40, 1-((3-(aminomethyl)cyclobutyl)methyl)-7-benzyl-2-(ethoxymethyl)-1H-imidazo[4,5-c]quinolin-4-amine]
